Results as given in PubChem BioAssay (NCI).
Where “and” joins values, the source holds several entries; their conditions need not be identical. Equal values may be shown once.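 48-hour exposure; five concentrations; linearly interpolated endpoints. Here, GI50 denotes the concentration required for 50% inhibition of growth. TGI: concentration producing complete growth inhibition.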

Tests used:
Assay in all cases: growth of human tumour cells (NCI), 48 h
OVCAR-8 ovarian = test system: OVCAR-8 ovarian
HCC-2998 colon = test system: HCC-2998 colon
KM12 colon = test system: KM12 colon
SF-295 CNS = test system: SF-295 CNS
SNB-75 CNS = test system: SNB-75 CNS
NCI-H522 lung = test system: NCI-H522 lung
OVCAR-5 ovarian = test system: OVCAR-5 ovarian
UACC-257 melanoma = test system: UACC-257 melanoma
SK-OV-3 ovarian = test system: SK-OV-3 ovarian
MDA-MB-231 breast = test system: MDA-MB-231 breast

## CCC[CH2][Sn]1([CH2]CCC)[O]CC([CH2][Sn]([c]2ccccc2)([c]2ccccc2)[c]2ccccc2)[O]1 (stereo unspecified)
OVCAR-8 ovarian
  GI50: 15.2 µM
  TGI: 34 µM
HCC-2998 colon
  GI50: 10.2 µM
  TGI: 22.4 µM
KM12 colon
  GI50: 12.2 µM
  TGI: 25.3 µM
SF-295 CNS
  GI50: 16.2 µM
  TGI: 30.4 µM
SNB-75 CNS
  GI50: 6.49 µM
  TGI: 20.2 µM
NCI-H522 lung
  GI50: 1.4 µM
  TGI: 3.37 µM
OVCAR-5 ovarian
  GI50: 17 µM
  TGI: 31 µM
UACC-257 melanoma
  GI50: 12.6 µM
  TGI: 26.6 µM
SK-OV-3 ovarian
  GI50: 19.1 µM
  TGI: 33.2 µM

## CN(Cc1ccccc1)c1nc(=[N+](C)C)ss1
OVCAR-8 ovarian
  TGI: > 100 µM
HCC-2998 colon
  TGI: > 100 µM
KM12 colon
  TGI: > 100 µM
SF-295 CNS
  TGI: > 100 µM
SNB-75 CNS
  TGI: > 100 µM
NCI-H522 lung
  TGI: > 100 µM
OVCAR-5 ovarian
  TGI: > 100 µM
UACC-257 melanoma
  TGI: > 100 µM
SK-OV-3 ovarian
  TGI: > 100 µM

## C=C(C)C1CCC2(CO)C(O)CC3(C)C(CCC4C5(C)CCC(O)C(C)(C)C5CCC43C)C12 (stereo unspecified)
OVCAR-8 ovarian
  TGI: 20.7 µM
MDA-MB-231 breast
  TGI: 57.2 µM
KM12 colon
  TGI: > 100 µM
SF-295 CNS
  TGI: 10.3 µM
SNB-75 CNS
  TGI: 9.5 µM
NCI-H522 lung
  TGI: 42.4 µM
OVCAR-5 ovarian
  TGI: > 100 µM
UACC-257 melanoma
  TGI: 24.9 µM

## CC(=O)NNc1nc(C)c(C(/C=C/c2ccc(Cl)cc2)=N/NC(=S)NN)s1
OVCAR-8 ovarian
  TGI: > 100 µM
KM12 colon
  TGI: > 100 µM
SF-295 CNS
  TGI: > 100 µM
SNB-75 CNS
  TGI: > 100 µM
NCI-H522 lung
  TGI: > 100 µM
OVCAR-5 ovarian
  TGI: > 100 µM
UACC-257 melanoma
  TGI: > 100 µM
SK-OV-3 ovarian
  TGI: > 100 µM

## CCc1ccccc1NC(=O)C1=C(C)NC(C)=C(C(=O)Nc2ccccc2CC)C1c1ccc(NC(C)=O)cc1
OVCAR-8 ovarian
  TGI: > 100 µM
HCC-2998 colon
  TGI: 48.6 µM
KM12 colon
  TGI: > 100 µM
SF-295 CNS
  TGI: > 100 µM
SNB-75 CNS
  TGI: > 100 µM
NCI-H522 lung
  TGI: 71.1 µM
OVCAR-5 ovarian
  TGI: > 100 µM
UACC-257 melanoma
  TGI: > 100 µM
SK-OV-3 ovarian
  TGI: > 100 µM

## CCCCCC/C=C\CCCCCCCCCc1c(O)c(OC)cc(O)c1CN(C)C
OVCAR-8 ovarian
  TGI: 23.8 µM
MDA-MB-231 breast
  TGI: 31.6 µM
KM12 colon
  TGI: 11.7 µM
SF-295 CNS
  TGI: 16.2 µM
SNB-75 CNS
  TGI: 13.8 µM
NCI-H522 lung
  TGI: 3.25 µM
OVCAR-5 ovarian
  TGI: 29.6 µM
UACC-257 melanoma
  TGI: 29.3 µM
SK-OV-3 ovarian
  TGI: 28.1 µM

## O/N=C1/C(=C/c2ccccc2)CCCC1C(NO)c1ccccc1 (stereo unspecified)
OVCAR-8 ovarian
  TGI: > 100 µM
KM12 colon
  TGI: > 100 µM
SF-295 CNS
  TGI: > 100 µM
SNB-75 CNS
  TGI: > 100 µM
NCI-H522 lung
  TGI: > 100 µM
OVCAR-5 ovarian
  TGI: > 100 µM
UACC-257 melanoma
  TGI: > 100 µM
SK-OV-3 ovarian
  TGI: > 100 µM

## COC(=O)NN=C1C(C)(C)C(=NNC(=O)OC)C1(C)C
OVCAR-8 ovarian
  TGI: > 55.9 µM
HCC-2998 colon
  TGI: > 100 µM
KM12 colon
  TGI: > 100 µM
SF-295 CNS
  TGI: > 100 µM
SNB-75 CNS
  TGI: > 100 µM
NCI-H522 lung
  TGI: > 100 µM
OVCAR-5 ovarian
  TGI: > 100 µM
UACC-257 melanoma
  TGI: > 100 µM
SK-OV-3 ovarian
  TGI: > 100 µM

## COC(=O)C(C(=O)C(=O)Nc1ccc(C)cc1C)c1nc2ccc([N+](=O)[O-])cc2[nH]c1=O (stereo unspecified)
OVCAR-8 ovarian
  TGI: > 100 µM
KM12 colon
  TGI: > 100 µM
SF-295 CNS
  TGI: > 100 µM
SNB-75 CNS
  TGI: > 100 µM
NCI-H522 lung
  TGI: > 100 µM
OVCAR-5 ovarian
  TGI: > 100 µM
UACC-257 melanoma
  TGI: > 100 µM
SK-OV-3 ovarian
  TGI: > 100 µM

## CC(=O)Oc1cc(OC(C)=O)c2cc3c(cc2c1OC(C)=O)C(=O)C1(CCCC1)C3=O
OVCAR-8 ovarian
  TGI: 31.6 µM
HCC-2998 colon
  TGI: 37.2 µM
SF-295 CNS
  TGI: 29.9 µM
SNB-75 CNS
  TGI: 30 µM
SK-OV-3 ovarian
  TGI: 31.4 µM

## NC(=O)N/N=C1/CCCC/C1=C\c1ccccc1
OVCAR-8 ovarian
  TGI: > 100 µM
HCC-2998 colon
  TGI: > 100 µM
KM12 colon
  TGI: > 100 µM
SF-295 CNS
  TGI: > 100 µM
SNB-75 CNS
  TGI: > 100 µM
NCI-H522 lung
  TGI: > 100 µM
OVCAR-5 ovarian
  TGI: > 100 µM
UACC-257 melanoma
  TGI: > 100 µM
SK-OV-3 ovarian
  TGI: > 100 µM

## CO[C@@]12[C@H](COC(N)=O)C3=C(C(=O)C(C)=C(N)C3=O)N1C[C@@H]1N[C@@H]12
OVCAR-8 ovarian
  GI50: 1.52 µM and 0.925 µM
HCC-2998 colon
  GI50: 1.14 µM
  TGI: 2.88 µM and 2.98 µM and 3.91 µM
MDA-MB-231 breast
  GI50: 17.5 µM and 9.42 µM
  TGI: 16.8 µM and 25 µM and 56.3 µM
KM12 colon
  GI50: 1.57 µM and 3.5 µM
NCI-H522 lung
  GI50: 1.1 µM and 1.18 µM
  TGI: 3.85 µM and 4.17 µM and 8.07 µM
OVCAR-5 ovarian
  GI50: 2.69 µM and 1.65 µM
  TGI: 9.29 µM and 10.5 µM and 14 µM
UACC-257 melanoma
  GI50: 2.16 µM
  TGI: 5.17 µM and 7.79 µM and 11.2 µM
SK-OV-3 ovarian
  GI50: 2.41 µM
  TGI: 9.83 µM and 18 µM and 7.06 µM

## COC(=O)C1=C2CO[C@@H]3C[C@H]4C(C)(C)CCC[C@]4(C)C(=CC1)[C@]23C
OVCAR-8 ovarian
  GI50: 40.2 µM
  TGI: > 100 µM
MDA-MB-231 breast
  GI50: 83 µM
  TGI: > 100 µM
KM12 colon
  GI50: 21.4 µM
  TGI: 74.1 µM
SF-295 CNS
  GI50: 14.9 µM
  TGI: 37.6 µM
SNB-75 CNS
  GI50: 20.4 µM
  TGI: 50.9 µM
NCI-H522 lung
  GI50: 29.4 µM
  TGI: > 100 µM
OVCAR-5 ovarian
  GI50: 21.8 µM
  TGI: > 100 µM
UACC-257 melanoma
  GI50: 35.7 µM
  TGI: > 100 µM

## CCCCCCCCCCCCCCCCCCOCC1(COP(=O)([O-])OCC[N+](C)(C)C)CCCO1 (stereo unspecified)
OVCAR-8 ovarian
  TGI: 26.5 µM
HCC-2998 colon
  TGI: 4.68 µM
KM12 colon
  TGI: 3.33 µM
SF-295 CNS
  TGI: 6.84 µM
SNB-75 CNS
  TGI: 18.3 µM
NCI-H522 lung
  TGI: 6.23 µM
OVCAR-5 ovarian
  TGI: 25.1 µM
UACC-257 melanoma
  TGI: 27.3 µM
SK-OV-3 ovarian
  TGI: 27.7 µM

## CC(C)(C)[Si](Nc1ccccc1)(c1ccccc1)c1ccccc1
OVCAR-8 ovarian
  TGI: 34 µM
HCC-2998 colon
  TGI: 30.7 µM
KM12 colon
  TGI: 27.4 µM
SF-295 CNS
  TGI: 26 µM
SNB-75 CNS
  TGI: 24.5 µM
UACC-257 melanoma
  TGI: 28.4 µM
SK-OV-3 ovarian
  TGI: 30.9 µM

## C[C@@]1(CBr)C[C@@](C)(/C=C/Cl)[C@@H](Cl)C[C@H]1Cl
OVCAR-8 ovarian
  TGI: 29.9 µM
HCC-2998 colon
  TGI: 29.8 µM
KM12 colon
  TGI: 22.5 µM
SF-295 CNS
  TGI: 26.8 µM
SNB-75 CNS
  TGI: 30.5 µM
NCI-H522 lung
  TGI: 14.5 µM
OVCAR-5 ovarian
  TGI: 26.3 µM
UACC-257 melanoma
  TGI: 24.2 µM
SK-OV-3 ovarian
  TGI: 29.9 µM

## COc1cc(CCC(=O)NS(=O)(=O)c2ccccc2)cc(OC)c1OC
OVCAR-8 ovarian
  TGI: > 100 µM
HCC-2998 colon
  TGI: > 100 µM
KM12 colon
  TGI: > 100 µM
SF-295 CNS
  TGI: > 100 µM
SNB-75 CNS
  TGI: > 100 µM
NCI-H522 lung
  TGI: > 100 µM
OVCAR-5 ovarian
  TGI: > 100 µM
UACC-257 melanoma
  TGI: > 100 µM
SK-OV-3 ovarian
  TGI: > 100 µM

## NC(=O)C12CCC1C1CCCCC12N1CCOCC1 (stereo unspecified)
OVCAR-8 ovarian
  TGI: > 100 µM
HCC-2998 colon
  TGI: > 100 µM
KM12 colon
  TGI: > 100 µM
SF-295 CNS
  TGI: > 100 µM
SNB-75 CNS
  TGI: > 100 µM
NCI-H522 lung
  TGI: > 100 µM
OVCAR-5 ovarian
  TGI: > 100 µM
SK-OV-3 ovarian
  TGI: > 100 µM

## CC(=O)[CH-]C(=O)c1ccccc1.CC(=O)[CH-]C(=O)c1ccccc1.CC[O-].O=C1C=C([O-])C(=O)c2ccccc21.[Ti+4]
OVCAR-8 ovarian
  GI50: > 100 µM
  TGI: > 100 µM
HCC-2998 colon
  GI50: 23.1 µM
  TGI: > 100 µM
KM12 colon
  GI50: 32.2 µM
  TGI: > 100 µM
SF-295 CNS
  GI50: 37.9 µM
  TGI: > 100 µM
SNB-75 CNS
  GI50: > 100 µM
  TGI: > 100 µM
NCI-H522 lung
  GI50: 10.6 µM
  TGI: 69.3 µM
OVCAR-5 ovarian
  GI50: 95.3 µM
  TGI: > 100 µM
UACC-257 melanoma
  GI50: 8.49 µM
  TGI: 86 µM
SK-OV-3 ovarian
  GI50: 70.8 µM
  TGI: > 100 µM

## COc1cc(C(=C2SCCS2)c2nccc3cc(OC)c(OC)cc23)c([N+](=O)[O-])cc1OC
OVCAR-8 ovarian
  TGI: > 100 µM
HCC-2998 colon
  TGI: > 100 µM
KM12 colon
  TGI: > 100 µM
SF-295 CNS
  TGI: > 100 µM
SNB-75 CNS
  TGI: > 100 µM
NCI-H522 lung
  TGI: > 100 µM
OVCAR-5 ovarian
  TGI: > 100 µM
UACC-257 melanoma
  TGI: > 100 µM
SK-OV-3 ovarian
  TGI: > 100 µM

## CN(C)NC(=S)NC12CC3CC(CC(C3)C1)C2
OVCAR-8 ovarian
  TGI: > 100 µM
HCC-2998 colon
  TGI: > 100 µM
KM12 colon
  TGI: > 100 µM
SF-295 CNS
  TGI: > 100 µM
SNB-75 CNS
  TGI: > 100 µM
NCI-H522 lung
  TGI: > 100 µM
OVCAR-5 ovarian
  TGI: > 100 µM
UACC-257 melanoma
  TGI: > 100 µM
SK-OV-3 ovarian
  TGI: > 100 µM

## C/C(CC(=O)Nc1ccc(NC(=O)/C(C)=N/NS(=O)(=O)c2ccc(C)cc2)cc1)=N\NS(=O)(=O)c1ccc(C)cc1
OVCAR-8 ovarian
  TGI: > 100 µM
HCC-2998 colon
  TGI: > 100 µM
KM12 colon
  TGI: > 100 µM
SF-295 CNS
  TGI: > 100 µM
SNB-75 CNS
  TGI: > 100 µM
OVCAR-5 ovarian
  TGI: > 100 µM
UACC-257 melanoma
  TGI: > 100 µM
SK-OV-3 ovarian
  TGI: > 100 µM
